Values quoted from earlier work, collected in patent US5776505A (Bayer Aktiengesellschaft, priority 1995, dated 1998).

Conditions: cross-over study; with magnesium hydroxide

CC(C)Cc1ccc(C(C)C(=O)O)cc1 (stereo not shown) [ibuprofen]
plasma concentration as a result of addition of magnesium hydroxide: higher plasma concentration
